In patent EP0461827B1, “Hair restorer” (KABUSHIKI KAISHA HAYASHIBARA SEIBUTSU KAGAKU KENKYUJO, priority 1990, dated 1991):

Columns and labels:
rabbits = experiment: Hair regeneration on depilated dorsum of rabbits, lotion applied once daily; type: in vivo; settings: 1% in 50% aqueous ethanol with 2% propyleneglycol, pH 6.7, 1ml once every day, difference to untreated area; for Mean remainder of hair length (mm) 10th (day): 10th day after application; for Mean remainder of hair length (mm) 20th (day): 20th day after application; for Mean remainder of hair length (mm) 30th (day): 30th day after application
Method: Either of an α-glycosyl-L-ascorbic acid or an α-glycosyl bioflavonoid prepared by the method in Example of Preparation 1-8 was dissolved to give a concentration of 1% in a 50% aqueous ethanol solution containing 2% propyleneglycol, and the mixture was adjusted to pH 6.7 by the addition of 6N sodium hydroxide to obtain a solution in hair lotion form. As control, a solution in hair lotion form was prepared similarly as above, except that α-glycosyl-L-ascorbic acid and α-glycosyl bioflavonoid were replaced with either of intact L-ascorbic acid, bioflavonoid and refined water.
The dorsum surgace of rabbits was sectioned into four areas, 5cm^2 each, i.e. two areas near at head side and two areas near at tail side which were respectively bisymmetrical about the vertebral columns of the rabbits, and the four areas were depilated by applying thereto silver cream (a depilatory agent) and subjecting them to brief standing. The depilated areas were first sufficiently washed with water, then the depilated areas of the right area near at head side, the left area near at head side, and the right area near at tail side were respectively applied once every day by using a paintbrush with 1ml of the test solution, 1ml of the control solution containing refined water, and 1ml of the control solution containing L-ascorbic acid or bioflavonoid. Furthermore, the left area near at tail side was untreated.
The application of each solution was started on the second day after the depilation, and the newly regenerated hairs were depilated to count on the 10th, 20th and 30th days after the application. The length of 10 coarse hairs regenerated in each area was measured with a micromanipulator, and expressed by the mean remainder of hair length (mm) between the hair length in the area which had been applied with a sample solution and that in the area which had been untreated.
In addition, it has been known that the growth rates of hairs in the bisymmetrical dorsum surfaces about the vertebral column of a rabbit is in the same level, and those in both sexes are also in the same level.

[1] = system: volunteers with alopecias; experiment: 3-month clinical test of a hair restorer lotion in volunteers with alopecias; type: in vivo, human; settings: for Therapeutic efficacy (Number of volunteers) Recovery / Therapeutic efficacy (Number of volunteers) Moderate recovery / Therapeutic efficacy (Number of volunteers) Not effected / Therapeutic efficacy (Number of volunteers) Unfavorable: 3-month, lotion with 1.0 part of ingredient, 3 times a day; for Therapeutic efficacy (Number of volunteers) Recovery: hair newly regenerated, apparently free from alopecia; for Therapeutic efficacy (Number of volunteers) Moderate recovery: moderate hair regeneration, no recurrence of alopecia; for Therapeutic efficacy (Number of volunteers) Not effected: no regeneration of hair; for Therapeutic efficacy (Number of volunteers) Unfavorable: side effect or acceleration of alopecia found; for cure rate (%): percentage of volunteers with recovery and moderate recovery against total number of each group
Source text: Based on the results in Experiment 1, 20 randomly chosen volunteers with alopecias (10 men and 10 women) as the recipient received 3-month clinical test. The volunteers were 15-66 years old.
The symptom of the volunteers, who had received a pharmacotherapy or physiotherapy at a department of dermatology, were the male alopecia such as senile alopecia and alopecia prematura, and alopecia areata such as multiple alopecia areata and malignant alopecia areata.
Since the symptom of the volunteers with a slight alopecia areata may be spontaneously recovered, the volunteers with a relatively small alopecic site and those with the atrophia cutis or atrophic pores which were not clinically observed were excluded in this Experiment.
The procedure of therapeutic treatment used in this Experiment is carried out according to conventional procedure:
Forty-five parts of ethanol, 2 parts of glycerine, 55 parts of refined water, and 1.0 part of 2-O-α-D-glucosyl-L-ascorbic acid or α-glucosyl bioflavonoid prepared by the method in Example of Preparation 2, 4, 6 or 8, were mixed, and the mixture was adjusted to pH 6.7 by the addition of 6N sodium hydroxide to obtain a hair restorer for external application in lotion form. When the volunteers received a physical examination, their affected sites were applied a thin coat of the hair restorer, massaged and exposed to an artificial sunlight. Furthermore, the volunteers were instructed to apply the hair restorer to the affected sites 3 times a day at home.
As control, a hair restorer for external application containing intact L-ascorbic acid or bioflavonoid in place of 2-O-α-D-glucosyl-L-ascorbic acid or α-glucosyl bioflavonoid in the above hair restorer was used.

[2] = system: α-glucosidase which had been extracted from a pig liver

Compound | Mean remainder of hair length (mm) 10th (day) (rabbits) [mm] | Mean remainder of hair length (mm) 20th (day) (rabbits) [mm] | Mean remainder of hair length (mm) 30th (day) (rabbits) [mm] | Therapeutic efficacy (Number of volunteers) Recovery [1] | Therapeutic efficacy (Number of volunteers) Moderate recovery [1] | Therapeutic efficacy (Number of volunteers) Not effected [1] | Therapeutic efficacy (Number of volunteers) Unfavorable [1] | cure rate (%) [1] [%] | hydrolysis by α-glucosidase [2]
C[C@@H]1O[C@@H](OC[C@H]2O[C@@H](Oc3c(-c4ccc(O)c(O)c4)oc4cc(O)cc(O)c4c3=O)[C@H](O)[C@@H](O)[C@@H]2O)[C@H](O)[C@H](O)[C@H]1O [Rutin, 3-[[6-O-(6-deoxy-α-L-mannopyranosyl)-β-D-glucopyranosyl)]oxy-2-(3,4-dihydroxyphenyl)-5,7-dihydroxy-4H-1-benzopyran-4-one, reference compound] | 0.3 | 0.9 | 0.5 | 0 Number of volunteers | 4 Number of volunteers | 13 Number of volunteers | 3 Number of volunteers | – | –
O=C1O[C@H]([C@@H](O)CO)C(O)=C1O[C@H]1O[C@H](CO)[C@@H](O)[C@H](O)[C@H]1O [2-O-α-D-Glucosyl-L-ascorbic acid] | 2.4 | 6.8 | 6.9 | 6 Number of volunteers | 10 Number of volunteers | 4 Number of volunteers | 0 Number of volunteers | 80 | –
α-Glucosyl hesperidin | 2.3 | 7.4 | 6.7 | 4 Number of volunteers | 11 Number of volunteers | 5 Number of volunteers | 0 Number of volunteers | 75 | formed hesperidin and D-glucose
C[C@@H]1O[C@@H](O[C@H]2[C@H](Oc3cc(O)c4c(c3)O[C@H](c3ccc(O)cc3)CC4=O)O[C@H](CO)[C@@H](O)[C@@H]2O)[C@H](O)[C@H](O)[C@H]1O [Naringin, reference compound] | 0.1 | 0.5 | -0.2 | 0 Number of volunteers | 5 Number of volunteers | 10 Number of volunteers | 5 Number of volunteers | – | –
α-Glucosyl rutin | 2.5 | 8.2 | 7.6 | 6 Number of volunteers | 12 Number of volunteers | 2 Number of volunteers | 0 Number of volunteers | 90 | hydrolyzed into rutin and D-glucose
COc1ccc(C2CC(=O)c3c(O)cc(OC4OC(COC5OC(C)C(O)C(O)C5O)C(O)C(O)C4O)cc3O2)cc1O (stereo not drawn) [Hesperidin, reference compound] | 0.1 | 0.5 | 0.2 | 0 Number of volunteers | 3 Number of volunteers | 12 Number of volunteers | 5 Number of volunteers | – | –
O=C1O[C@H]([C@@H](O)CO)C(O)=C1O [L-Ascorbic acid, L-ascorbic acid, reference compound] | 0.1 | -0.2 | 0.5 | 0 Number of volunteers | 3 Number of volunteers | 11 Number of volunteers | 6 Number of volunteers | – | –
α-Glucosyl naringin | 2.1 | 6.6 | 6.3 | 4 Number of volunteers | 9 Number of volunteers | 7 Number of volunteers | 0 Number of volunteers | 65 | hydrolyzed the α-glucosyl naringin into naringin and D-glucose
